The results in this text go back to US5231182A, “Method of making certain aryl containing amides” (American Cyanamid Company, priority 1991, dated 1993).

Assay [1] relates to PAF induced lethality. The assay can be described thus: PAF induced lethality in mice. Format: in vivo. Particulars: PAF 150 μg/kg IV. The protocol: PAF given I.V. to mice causes an immediate hypotensive shock leading to death in 1 hour or less. Compounds are given intraperitoneally or P.O. at various times before the PAF challenge. Animals alive after 2 hours are counted and the activity of test compounds expressed as % survival corrected for any control (saline treated) animals which survived the PAF challenge.
Effect of Compound Given I.V. or P.O. in Protecting
Mice from a Lethal Challenge of PAF^a
^a lethal challenge of PAF is 150 μg/kg IV.

Assay [2] has as its system Endotoxin induced shock and mortality. As to the kind of experiment: Endotoxin induced shock and mortality in mice: low dose, chronic mouse endotoxemia. Format: in vivo, Male Balb/c mice. The source says: Endotoxin administration produces a shock-like state characterized by vascular permeability changes, hypotension, neutropenia, thrombocytopenia,multiple organ damage and death. The major mediators released after endotoxin injection are TNF (tumor necrosis factor), PAF (platelet activating factor) and […] (interleukin I). PAF administration mimics the signs and symptoms of endotoxin induced shock and death and endotoxin also induces the release of PAF. Therefore, the effects of endotoxin should be blocked with a PAF antagonist.
Male Balb/c mice (approximately 20 g) are obtained from Charles River Laboratories and used after a one-two week acclimation period. Animals are given (ip) test compound dissolved in saline or water (sonicated and heated) at different time intervals prior to and after the ip injection of endotoxin (usually 2 hours before LPS endotoxin, and 3-4 hours after). Sigma E. Coli endotoxin, 0111:B4, phenol extraction, catalog #L2630 is used for these studies.
For the chronic endotoxin shock model, a lower dose of endotoxin is administered (generally 15 to 20 mg/kg i.p). This dose gives an LD80 in two to four days following LPS administration. Test compounds are given 2 hours before LPS and 3-4 hours after on the first day, followed by 3 or 4 consecutive days of BID dosing. The number of survivors in each group is recorded each day for a period of 5 to 7 days.
Effect of Compounds Given i.p. in Low Dose, Chronic Mouse Endoxemia

The target of assay [3] is T1, PAF receptor (Oryctolagus cuniculus, UniProt G1TEI7).
T1 construct: centrifuged at 800 rpm for 10-15 minutes at room temperature to recover the platelet rich plasma (PRP); endogenous in cells; host or cells: platelets in citrated platelet rich plasma from male New Zealand White rabbits (Oryctolagus cuniculus)
As to the kind of experiment: Platelet Activating Factor antagonism in vitro: inhibition of PAF induced platelet aggregation in rabbit platelet rich plasma. Format: cell-based, rabbit (New Zealand White). Particulars: PAF chall conc 5.0000E-08 M. The protocol:
Test compounds are evaluated as PAF receptor antagonists in vitro by measuring inhibition of PAF (platelet activating factor) induced platelet aggregation. Platelet aggregation is measured by a modification of the method described in […], et. al., J. Med. Chem., 27 1174, 1984. […] All syringes and pipets are plastic. The blood is gently mixed and immediately centrifuged at 800 rpm for 10-15 minutes at room temperature to recover the platelet rich plasma (PRP). Platelet poor plasma (PPP) is prepared by centrifuging PRP at 2800 rpm for 10 minutes at room temperature. Dilutions (1:3000) of PRP in Isoton® diluent are made and platelet counts are determined on a Coulter Thrombocounter which is standardized with platelet reference standards (Interscience Platelet Control, Portland, Oreg.). PRP platelet counts are adjusted to approximately 400,000-500,000 platelets/μl by the addition of PPP. L-PAF (Platelet Activating Factor) is obtained from Calbiochem. […] All solutions are made up in plastic tubes, stored on ice and protected from heat and light. Solutions are prepared fresh or frozen at -20° C. and used within 48 hours. Incubation mixtures consisted of 400 μl PRP, 50 μl of saline diluent or test compound and 50 μl of PAF agonist. More specifically, 400 μl of PRP is stabilized in a cuvette for 1-2 minutes at 37° C. in the aggregometer to achieve a stable baseline, then 50 μl of saline or test compound is added and incubated for 5 minutes before addition of the challenge concentration of PAF. A submaximal concentration is determined from the dose response curve for PAF for that experiment. In general, the challenge concentration is 5E-8 or IE-7M. Aggregation is monitored for 5 minutes. Samples containing test compound or diluent are run simultaneously for comparison. Test compounds are initially evaluated at a screening concentration of 1E-5M. […] The recording equipment consists of a dual channel Chronolog aggregometer connected to a dual channel 10MV full scale deflection Omniscribe chart recorder (Houston Instruments). The chart recorder is calibrated daily with the use of a suspension of Bio-Rad latex beads (S-X 12 400 mesh) which has a density slightly greater than rabbit PRP. […] These limits defined a full scale deflection. The aggregation traces are analyzed by a digitizing method (C. Kohler and B. Zoltan, J. Pharm. Methods, 12, 113, 1984) with x, y coordinate data stored in a computer file. A suitable program computes parameters of interest such as the magnitude of aggregation. | ^a dose of compound that gives the indicated % inhibition. | ^b the % inhibition of PAF induced platelet aggregation. | ^c the molar concentration of compound that will inhibit 50% of the | platelet aggretation induced by PAF given at the indicated PAF challenge | concentration.

Each structure is given as a SMILES string. Where “and” joins values, the source holds several entries; their conditions need not be identical. Equal entries are not always repeated. Structures can show the parent of a compound that is named as a salt.

T1 sequence (G1TEI7 1-342): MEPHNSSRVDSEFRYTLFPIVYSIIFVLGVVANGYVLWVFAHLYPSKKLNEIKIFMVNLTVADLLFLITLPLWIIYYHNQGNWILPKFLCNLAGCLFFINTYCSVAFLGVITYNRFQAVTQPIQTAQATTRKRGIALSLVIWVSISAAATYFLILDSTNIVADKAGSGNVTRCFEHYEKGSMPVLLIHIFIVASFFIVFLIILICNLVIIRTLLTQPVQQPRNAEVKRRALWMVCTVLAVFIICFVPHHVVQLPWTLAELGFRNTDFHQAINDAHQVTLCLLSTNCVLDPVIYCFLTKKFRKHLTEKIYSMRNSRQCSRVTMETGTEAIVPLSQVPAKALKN

As to `CCCCCCCCCCCCCCOc1ccc(CN(C(C)=O)c2cccc(C[n+]3csc(C)c3)c2)cc1.[Br-]` [3-[[3-[Acetyl[[4-(tetradecyloxy)phenyl]methyl]amino]phenyl]methyl]-5-methylthiazolium bromide], the “% Survival” value in assay [1] (I.V. 1 mg/kg) was 83%; in assay [1] (I.V. .25 mg/kg), 100%; in assay [1] (I.V. .5 mg/kg), 83%; in assay [1] (P.O. 5 mg/kg) it was 52%; in assay [1] (P.O. 10 mg/kg), 75%; in assay [1] (P.O. 20 mg/kg) it was 75%. Also, the “% Survival” value in assay [2] (day 0, dose 10 mg/kg i.p.) is listed as 100%; in assay [2] (day 1, dose 10 mg/kg i.p.) it was 73%; in assay [2] (day 2, dose 10 mg/kg i.p.), 33%; in assay [2] (day 3, dose 10 mg/kg i.p.), 26%; in assay [2] (day 4, dose 10 mg/kg i.p.), 23%; in assay [2] (day 5, dose 10 mg/kg i.p.), 23%. Further, the “% Survival” value in assay [2] (day 6, dose 10 mg/kg i.p.) is reported as 23%. The “No Surv./tot.” value in assay [2] (day 0, dose 10 mg/kg i.p.) is given as 30/30; in assay [2] (day 1, dose 10 mg/kg i.p.), 22/30; in assay [2] (day 2, dose 10 mg/kg i.p.) it was 10/30; in assay [2] (day 3, dose 10 mg/kg i.p.) it was 8/30; in assay [2] (day 4, dose 10 mg/kg i.p.), 7/30; in assay [2] (day 5, dose 10 mg/kg i.p.), 7/30. Moreover, the “No Surv./tot.” value in assay [2] (day 6, dose 10 mg/kg i.p.) is recorded as 7/30. Besides, the “% INH (inhibition of PAF induced platelet aggregation)” value in assay [3] (dose .00001 M) is 100.0% and 90.0%.
Take `CCCCCCCCCCCCCCOc1ccc(CC(=O)Nc2cccc(C[n+]3ccsc3)c2)cc1.[Br-]` [3-[[3-[[[-4-(tetradecyloxy)phenyl]acetyl]amino]phenyl]methyl]thiazolium bromide]: the “% Survival” value in assay [1] (P.O. 40 mg/kg) was 40%; in assay [2] (day 0, dose 10 mg/kg i.p.) it was 100%; in assay [2] (day 0, dose 20 mg/kg i.p.), 100%; in assay [2] (day 1, dose 10 mg/kg i.p.) it was 83%; in assay [2] (day 1, dose 20 mg/kg i.p.), 90%; in assay [2] (day 2, dose 10 mg/kg i.p.), 66%. Further, the “% Survival” value came to 43% in assay [2] (day 2, dose 20 mg/kg i.p.); 63% in assay [2] (day 3, dose 10 mg/kg i.p.); 40% in assay [2] (day 3, dose 20 mg/kg i.p.); 63% in assay [2] (day 4, dose 10 mg/kg i.p.); 40% in assay [2] (day 4, dose 20 mg/kg i.p.); 63% in assay [2] (day 5, dose 10 mg/kg i.p.). In addition, the “% Survival” value is 40% in assay [2] (day 5, dose 20 mg/kg i.p.); 63% in assay [2] (day 7, dose 10 mg/kg i.p.); 40% in assay [2] (day 7, dose 20 mg/kg i.p.). The “No Surv./tot.” value is recorded as 30/30 in assay [2] (day 0, dose 10 mg/kg i.p.); 30/30 in assay [2] (day 0, dose 20 mg/kg i.p.); 25/30 in assay [2] (day 1, dose 10 mg/kg i.p.); 27/30 in assay [2] (day 1, dose 20 mg/kg i.p.); 20/30 in assay [2] (day 2, dose 10 mg/kg i.p.); 13/30 in assay [2] (day 2, dose 20 mg/kg i.p.). Also, the “No Surv./tot.” value in assay [2] (day 3, dose 10 mg/kg i.p.) is given as 19/30; in assay [2] (day 3, dose 20 mg/kg i.p.) it was 12/30; in assay [2] (day 4, dose 10 mg/kg i.p.) it was 19/30; in assay [2] (day 4, dose 20 mg/kg i.p.), 12/30; in assay [2] (day 5, dose 10 mg/kg i.p.), 19/30; in assay [2] (day 5, dose 20 mg/kg i.p.) it was 12/30. Moreover, the “No Surv./tot.” value in assay [2] (day 6, dose 10 mg/kg i.p.) is listed as 19/30; in assay [2] (day 6, dose 20 mg/kg i.p.), 12/30; in assay [2] (day 7, dose 10 mg/kg i.p.), 19/30; in assay [2] (day 7, dose 20 mg/kg i.p.) it was 12/30. Also, in assay [3] (dose .000001 M), the “% INH (inhibition of PAF induced platelet aggregation)” value was 93.0% and 62.0%.
Consider `CCCCCCCCCCCCCCOc1ccc(CC(=O)Nc2cccc(-n3ccnc3C)c2)cc1` [N-[3-(2-Methyl-1H-imidazol-1-yl)phenyl-4-(tetradecyloxy)benzeneacetamidemonohydrochloride], for which the “% INH (inhibition of PAF induced platelet aggregation)” value in assay [3] (dose .00001 M, monohydrochloride) was 39.0%.
Take `CCCCCCCCCCCCCCOc1ccc(CN(C(=O)NC)c2cccc(C[n+]3csc(C)c3)c2)cc1.[Br-]` [5-Methyl-3-[[3-[[(methylamino)carbonyl]-[[4-(tetradecyloxy)phenyl]methyl]amino]phenyl]methyl]thiazolium bromide]: the “% Survival” value in assay [2] (day 0, dose 10 mg/kg i.p.) worked out at 100%; in assay [2] (day 0, dose 20 mg/kg i.p.), 100%; in assay [2] (day 1, dose 10 mg/kg i.p.) it was 80%; in assay [2] (day 1, dose 20 mg/kg i.p.) it was 90%; in assay [2] (day 2, dose 10 mg/kg i.p.) it was 46%; in assay [2] (day 2, dose 20 mg/kg i.p.), 23%. Further, the “% Survival” value is reported as 46% in assay [2] (day 3, dose 10 mg/kg i.p.); 20% in assay [2] (day 3, dose 20 mg/kg i.p.); 46% in assay [2] (day 4, dose 10 mg/kg i.p.); 20% in assay [2] (day 4, dose 20 mg/kg i.p.); 46% in assay [2] (day 5, dose 10 mg/kg i.p.); 20% in assay [2] (day 5, dose 20 mg/kg i.p.). Moreover, the “% Survival” value in assay [2] (day 7, dose 10 mg/kg i.p.) is on record as 46%; in assay [2] (day 7, dose 20 mg/kg i.p.), 20%. Moreover, the “No Surv./tot.” value is on record as 30/30 in assay [2] (day 0, dose 10 mg/kg i.p.); 30/30 in assay [2] (day 0, dose 20 mg/kg i.p.); 24/30 in assay [2] (day 1, dose 10 mg/kg i.p.); 27/30 in assay [2] (day 1, dose 20 mg/kg i.p.); 14/30 in assay [2] (day 2, dose 10 mg/kg i.p.); 7/30 in assay [2] (day 2, dose 20 mg/kg i.p.). Moreover, the “No Surv./tot.” value in assay [2] (day 3, dose 10 mg/kg i.p.) is on record as 14/30; in assay [2] (day 3, dose 20 mg/kg i.p.), 6/30; in assay [2] (day 4, dose 10 mg/kg i.p.), 14/30; in assay [2] (day 4, dose 20 mg/kg i.p.), 6/30; in assay [2] (day 5, dose 10 mg/kg i.p.), 14/30; in assay [2] (day 5, dose 20 mg/kg i.p.), 6/30. In addition, the “No Surv./tot.” value was 14/30 in assay [2] (day 6, dose 10 mg/kg i.p.); 6/30 in assay [2] (day 6, dose 20 mg/kg i.p.); 14/30 in assay [2] (day 7, dose 10 mg/kg i.p.); 6/30 in assay [2] (day 7, dose 20 mg/kg i.p.).
